From patent US10597388B2, “Pyridazinone herbicides” (FMC CORPORATION, priority 2014, dated 2020)

What was measured:
Assay in all cases: Test D controlled growth environment herbicide test, pre- and postemergence
Assay type in all cases: in vivo
[1] = system: deadnettle (henbit deadnettle, Lamium amplexicaule)
How it was run: (§1)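 Pre-emergence: seeds sown in silt loam soil were sprayed with compound in a non-phytotoxic solvent mix containing surfactant. Post-emergence: plants at 2 to 18 cm (1- to 4-leaf stage) in peat moss/vermiculite medium got the same formulation. Visual 0–100 rating versus controls after 14 to 21 d.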

[2] = system: lambsquarters (Chenopodium album)
How it was run: as §1

[3] = system: Russian thistle (Salsola kali)
How it was run: as §1

[4] = system: windgrass (Apera spica-venti)
How it was run: as §1

[5] = system: chickweed (common chickweed, Stellaria media)
How it was run: as §1

[6] = system: barley, winter (winter barley, Hordeum vulgare)
How it was run: as §1

[7] = system: speedwell (bird's-eye speedwell, Veronica persica)
How it was run: as §1

[8] = system: galium (catchweed bedstraw, Galium aparine)
How it was run: as §1

kochia (Kochia scoparia) = system: kochia (Kochia scoparia)
How it was run: as §1

[9] = system: mustard, wild (wild mustard, Sinapis arvensis)
How it was run: as §1

[10] = system: bromegrass, downy (downy bromegrass, Bromus tectorum)
How it was run: as §1

[11] = system: wheat, winter (winter wheat, Triticum aestivum)
How it was run: as §1

[12] = system: field poppy (Papaver rhoeas)
How it was run: as §1

[13] = Postemergence, 31 g ai/ha, scale 0 to 100 (0 no effect, 100 complete control)
[14] = Postemergence, 125 g ai/ha, visual rating on scale 0 (no effect) to 100 (complete control), 14 to 21 d
[15] = Postemergence, 250 g ai/ha, scale 0 to 100 (0 no effect, 100 complete control)
[16] = Preemergence, 62 g ai/ha, scale 0 to 100 (0 no effect, 100 complete control)
[17] = Preemergence, 125 g ai/ha, scale 0 to 100 (0 no effect, 100 complete control)
[18] = Preemergence, 250 g ai/ha, scale 0 to 100 (0 no effect, 100 complete control)
[19] = postemergence, 62 g ai/ha, scale 0 to 100, 0 no effect, 100 complete control

CCC(=O)Oc1c(C)nn(C)c(=O)c1-c1c(C)sc2c(C)cc(C)cc12 [Compound 28]
60: Speedwell plant response rating [7, 13] | Plant response rating, Galium [8, 16]
25: Plant response rating, Bromegrass, Downy [10, 19]
80: Lambsquarters plant response rating [2, 13] | Plant response rating, Russian Thistle [3, 14] | Plant response rating, Windgrass [4, 19] | Field Poppy plant response rating [12, 13]
30: Plant response rating, Kochia (kochia (Kochia scoparia); [17]) | Plant response rating, Mustard, Wild [9, 17]
45: Plant response rating, Mustard, Wild [9, 19] | Plant response rating (scale of 0 to 100), Bromegrass, Downy ([10]; Preemergence, 31 g ai/ha)
100: Plant response rating (scale of 0 to 100), Lambsquarters ([2]; Preemergence, 31 g ai/ha) | Plant response rating, Lambsquarters [2, 16] | Plant response rating, Lambsquarters [2, 17] | Plant response rating, Lambsquarters [2, 18] | Plant response rating, Windgrass [4, 18] | Chickweed plant response rating [5, 13] | Plant response rating, Chickweed [5, 14] | Plant response rating, Chickweed [5, 15] | Plant response rating (scale of 0 to 100), Chickweed ([5]; Preemergence, 31 g ai/ha) | Plant response rating, Chickweed [5, 16] | Plant response rating, Chickweed [5, 17] | Plant response rating, Chickweed [5, 18] | Plant response rating, Chickweed [5, 19] | Plant response rating, Speedwell [7, 14] | Plant response rating, Speedwell [7, 15] | Plant response rating, Speedwell [7, 18] | Galium plant response rating [8, 13] | Plant response rating, Galium [8, 14] | Plant response rating, Galium [8, 15] | Plant response rating, Galium [8, 18] | Plant response rating, Galium [8, 19] | Plant response rating, Field Poppy [12, 14] | Plant response rating, Field Poppy [12, 15] | Plant response rating (scale of 0 to 100), Field Poppy ([12]; Preemergence, 31 g ai/ha) | Plant response rating, Field Poppy [12, 18]
0: Plant response rating (scale of 0 to 100), Deadnettle ([1]; Preemergence, 31 g ai/ha) | Plant response rating, Deadnettle [1, 16] | Plant response rating (scale of 0 to 100), Russian Thistle ([3]; Preemergence, 31 g ai/ha) | Plant response rating, Russian Thistle [3, 16] | Plant response rating, Barley, Winter [6, 13] | Plant response rating (scale of 0 to 100), Barley, Winter ([6]; Preemergence, 31 g ai/ha) | Plant response rating, Barley, Winter [6, 16] | Plant response rating, Barley, Winter [6, 19] | Plant response rating (scale of 0 to 100), Wheat, Winter ([11]; Preemergence, 31 g ai/ha) | Plant response rating, Wheat, Winter [11, 16] | Plant response rating, Wheat, Winter [11, 17] | Plant response rating, Wheat, Winter [11, 18]
90: Plant response rating, Lambsquarters [2, 14] | Plant response rating, Lambsquarters [2, 15] | Plant response rating, Windgrass [4, 17] | Plant response rating, Field Poppy [12, 19]
35: Plant response rating, Deadnettle [1, 14] | Plant response rating, Deadnettle [1, 19] | Plant response rating, Russian Thistle [3, 18] | Kochia plant response rating (kochia (Kochia scoparia); [13]) | Mustard, Wild plant response rating [9, 13]
40: Plant response rating, Kochia (kochia (Kochia scoparia); [19]) | Plant response rating, Bromegrass, Downy [10, 14]
55: Plant response rating, Mustard, Wild [9, 18] | Plant response rating, Bromegrass, Downy [10, 16]
65: Plant response rating, Kochia (kochia (Kochia scoparia); [18])
10: Deadnettle plant response rating [1, 13] | Plant response rating (scale of 0 to 100), Mustard, Wild ([9]; Preemergence, 31 g ai/ha)
5: Plant response rating, Deadnettle [1, 17] | Plant response rating, Deadnettle [1, 18] | Plant response rating, Barley, Winter [6, 14] | Plant response rating, Barley, Winter [6, 15] | Wheat, Winter plant response rating [11, 13] | Plant response rating, Wheat, Winter [11, 14] | Plant response rating, Wheat, Winter [11, 19]
70: Plant response rating, Deadnettle [1, 15] | Russian Thistle plant response rating [3, 13] | Windgrass plant response rating [4, 13] | Plant response rating (scale of 0 to 100), Windgrass ([4]; Preemergence, 31 g ai/ha) | Plant response rating, Mustard, Wild [9, 14] | Plant response rating, Mustard, Wild [9, 15] | Plant response rating, Bromegrass, Downy [10, 15] | Plant response rating, Bromegrass, Downy [10, 17]
75: Plant response rating, Russian Thistle [3, 19] | Plant response rating, Windgrass [4, 16] | Plant response rating, Kochia (kochia (Kochia scoparia); [15])
20: Plant response rating (scale of 0 to 100), Kochia (kochia (Kochia scoparia); Preemergence, 31 g ai/ha) | Plant response rating, Kochia (kochia (Kochia scoparia); [16])
15: Plant response rating, Russian Thistle [3, 17] | Plant response rating, Barley, Winter [6, 17] | Barley, Winter plant response rating [6, 18] | Plant response rating (scale of 0 to 100), Galium ([8]; Preemergence, 31 g ai/ha) | Plant response rating, Mustard, Wild [9, 16] | Bromegrass, Downy plant response rating [10, 13] | Plant response rating, Wheat, Winter [11, 15]
85: Plant response rating, Lambsquarters [2, 19] | Plant response rating, Russian Thistle [3, 15] | Plant response rating, Windgrass [4, 14] | Plant response rating, Windgrass [4, 15] | Plant response rating, Speedwell [7, 19] | Plant response rating, Galium [8, 17] | Plant response rating, Bromegrass, Downy [10, 18]
95: Plant response rating (scale of 0 to 100), Speedwell ([7]; Preemergence, 31 g ai/ha) | Plant response rating, Speedwell [7, 16] | Plant response rating, Speedwell [7, 17] | Plant response rating, Field Poppy [12, 16] | Plant response rating, Field Poppy [12, 17]
50: Plant response rating, Kochia (kochia (Kochia scoparia); [14])
